As usually defined, the IC50 is the concentration at which inhibition is half-maximal. A high value points to weaker potency in that assay.

Data on nine compounds can be found in ChEMBL document CHEMBL3044566, “Synthesis and anticancer activity of some new s-triazine derivatives” (Med Chem Res, 2013).

Common to all, as to assay type: functional, cell-based
For one experiment, the system named is A549. Nature of the experiment: Cytotoxicity against human A549 cells after 24 hrs by MTT assay. The note with it: A549, 24 h. Background: Tetrazolium assays rely on reduction of a dye to a coloured formazan, in cell work by metabolically active cells.
For a further experiment, the system named is HT-29. Nature of the experiment: Cytotoxicity against human HT-29 cells after 24 hrs by MTT assay. The settings on record: HT-29, 24 h.
A further experiment concerns PA-1. Nature of the experiment: Cytotoxicity against human PA1 cells after 24 hrs by MTT assay. The settings on record: PA-1, 24 h.
The test system of the next experiment is MCF7. The experiment is described as follows: Cytotoxicity against human MCF7 cells after 24 hrs by MTT assay. The note with it: MCF7, 24 h.

Structures are written as SMILES.

With `Fc1ccc(Nc2nc(Nc3ccc(-c4nc5ccccc5o4)cc3)nc(N3CCOCC3)n2)cc1`, the IC50 with A549 worked out at 26.7 µM; in the experiment on HT-29, 0.31 µM; with PA-1, 0.45 µM; with MCF7 it was 12.3 µM.
Regarding `c1ccc(CNc2nc(Nc3ccc(-c4nc5ccccc5o4)cc3)nc(N3CCOCC3)n2)cc1`, the IC50 with A549 is 23.4 µM; with HT-29, 0.92 µM; with PA-1, 10.5 µM; in the experiment on MCF7 it was 2.46 µM.
In the same order, the values of `COc1ccc(Nc2nc(Nc3ccc(-c4nc5ccccc5o4)cc3)nc(N3CCOCC3)n2)cc1` are 12.9 µM, 0.14 µM, 0.25 µM and 6.48 µM.
Take `c1ccc(Nc2nc(Nc3ccc(-c4nc5ccccc5o4)cc3)nc(N3CCOCC3)n2)cc1`: the IC50 in the experiment on A549 worked out at 22 µM; with HT-29 it was 0.27 µM; in the experiment on PA-1 it was 0.61 µM; in the experiment on MCF7, 10.6 µM.
The corresponding values for `Clc1nc(NCc2ccccc2)nc(Nc2ccc(-c3nc4ccccc4o3)cc2)n1` are 296 µM, 44 µM, 195 µM and 66.1 µM.
For the compound `Fc1ccc(Nc2nc(Cl)nc(Nc3ccc(-c4nc5ccccc5o4)cc3)n2)cc1`, the IC50 in the experiment with A549 came to 254 µM; in the experiment with HT-29, 47 µM; in the experiment with PA-1, 186 µM; in the experiment on MCF7, 68.4 µM.
The corresponding values for `COc1ccc(Nc2nc(Cl)nc(Nc3ccc(-c4nc5ccccc5o4)cc3)n2)cc1` are 278 µM, 139 µM, 172 µM and 270 µM.
With `Clc1nc(Nc2ccccc2)nc(Nc2ccc(-c3nc4ccccc4o3)cc2)n1`, the IC50 with A549 worked out at 225 µM; in the experiment on HT-29, 32.6 µM; in the experiment with PA-1 it was 169 µM; in the experiment with MCF7, 55.2 µM.
`COc1cccc2c1C(=O)c1c(O)c3c(c(O)c1C2=O)C[C@@](O)(C(=O)CO)C[C@@H]3O[C@H]1C[C@H](N)[C@H](O)[C@H](C)O1` [DOXORUBICIN]: the IC50 was found to be 1.76 µM in the experiment with HT-29, 0.64 µM in the experiment with PA-1 and 10.9 µM in the experiment with MCF7.
